Values quoted from earlier work as cited in patent WO2011103442A2, “Synthesis of the potent immunosuppressant agents dalesconol a and b” (Columbia University in the City of New York, priority 2010, dated 2011).
In brackets after ≈: the same amount, converted by molar mass.

Columns and labels:
[1] = compared with cyclosporin A
[2] = tested on: ConA-induced proliferation of mouse spleen cells; conditions: in vitro
acetylcholinesterase = acetylcholinesterase (Homo sapiens, UniProt P22303)
[3] = for IC50, immunosuppressive activity: as repeated in the Discussion

acetylcholinesterase, sequence (P22303 32-614): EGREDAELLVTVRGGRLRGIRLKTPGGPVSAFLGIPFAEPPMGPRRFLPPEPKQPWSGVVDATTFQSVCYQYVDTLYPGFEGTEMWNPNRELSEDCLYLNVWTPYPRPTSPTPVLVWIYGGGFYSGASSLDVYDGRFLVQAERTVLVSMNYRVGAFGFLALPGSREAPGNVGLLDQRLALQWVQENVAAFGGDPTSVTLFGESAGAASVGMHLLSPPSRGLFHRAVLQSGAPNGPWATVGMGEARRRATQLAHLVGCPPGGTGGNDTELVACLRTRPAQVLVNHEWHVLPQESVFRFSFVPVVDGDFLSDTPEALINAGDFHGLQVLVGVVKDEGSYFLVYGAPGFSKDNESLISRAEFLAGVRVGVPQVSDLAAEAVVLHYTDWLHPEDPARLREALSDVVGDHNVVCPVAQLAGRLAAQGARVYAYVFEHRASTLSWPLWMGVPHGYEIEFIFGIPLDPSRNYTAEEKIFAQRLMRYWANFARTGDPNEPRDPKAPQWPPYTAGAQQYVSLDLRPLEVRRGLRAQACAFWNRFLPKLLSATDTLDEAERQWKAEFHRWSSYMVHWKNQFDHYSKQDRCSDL

Row | Molecule | background cytotoxicity relative to cyclosporin A [1] | selectivity factor, activity versus cytotoxic effects [2] | acetylcholinesterase inhibition (acetylcholinesterase) | IC50, immunosuppressive activity [3] | immunosuppressive potency of racemic mixture versus separated enantiomers ([3]; racemic mixture)
1 | O=C1CC2CC(=O)c3c(O)cccc3C23C(=C2C=CC(=O)c4c(O)ccc3c42)c2cccc(O)c21 (stereo not drawn) [dalesconol A] | significantly reduced background cytotoxicity | greater than 500 | potent acetylcholinesterase inhibitor | 0.00016 ng/mL (≈ 0.000346 nM) | more potent than their separated enantiomers
2 | cyclosporin A [reference compound] |  |  |  | 6e-05 ng/mL | 
